The values that follow come from PMC10778198, “First-in-Human Dose-Escalation Study of the Novel Oral Depsipeptide Class I-Targeting HDAC Inhibitor Bocodepsin (OKI-179) in Patients with Advanced Solid Tumors” (Cancers, 2023).

Data set [1] deals with Class IIa HDACs. More on the design: method as in PMID 34965958. To be noted: cited from earlier work.
The subject of data set [2] is HDAC1. Also on record: method as in PMID 34965958. The note with it: cell-free; cited from earlier work.
The subject of data set [3] is HDAC3. More on the design: method as in PMID 34965958. The note with it: cell-free; cited from earlier work.
In data set [4] the test system is HDAC2. More on the design: method as in PMID 34965958. To be noted: cell-free; cited from earlier work.
The test system of data set [5] is HDAC8. Also on record: method as in PMID 34965958. To be noted: cell-free; cited from earlier work.
The nature of data set [6]: plasma pharmacokinetics by LC-MS/MS in patients. The class given is in vivo, human. To be noted: for Tmax: read-out: Tmax of OKI-006 (Free). As for the experimental part:
Blood samples were collected immediately prior to the first dose on cycle 1 and day 1, and then at 0.25, 0.5, 1, 2, 4, 8, and 24 h after taking OKI-179 on days 1 and 15. Additional samples were collected pre-dose and 2 and 4 h after OKI-179 administration on day 18 in later cohorts. Blood samples were stabilized with sodium fluoride and formic acid immediately after collection to arrest the additional conversion of the prodrug OKI-179 to OKI-006. Plasma was further stabilized using ascorbic acid prior to low-temperature storage.
Plasma concentrations of OKI-179 and OKI-006 were analyzed using validated liquid chromatography-mass spectrometry (LC-MS/MS) (Quintara Discovery Inc., Hayward, CA, USA). OKI-006 contains a free thiol moiety that can reversibly react with endogenous molecules in the blood and tissue, resulting in “bound” OKI-006. The unreacted OKI-006 is considered “free”. As bound OKI-006 can reversibly convert to free OKI-006 in vivo, both the free and “total” (free plus bound) concentrations of OKI-006 are considered pharmacologically relevant and were therefore quantified as part of this study. Bioanalytically, the total OKI-006 was measured by chemically converting all bound OKI-006 to free OKI-006 prior to analysis using the free OKI-006 bioanalytical method.
The AUClast was calculated from time zero to the time of the last quantifiable concentration for OKI-179, free OKI-006, and total OKI-006.

Setting [7] is: OKI-179 300-mg 5:2, Cycle 1 Day 1, geometric mean.
Setting [8] is: OKI-179 300-mg 5:2, Cycle 1 Day 15, geometric mean.

The structures appear in SMILES notation. Like-named read-outs stand apart in the source and are kept apart here.

For orientation: IC50 means the concentration that inhibits the measured activity by half. The Tmax is the time at which the peak concentration occurs. Regarding `CC(C)[C@@H]1NC(=O)C(C)(C)NC(=O)c2csc(n2)CNC(=O)C[C@@H](/C=C/CCS)OC1=O` [OKI-006], the IC50 in data set [1] is greater than 1000 nM; in data set [2] it was 1.2 nM; in data set [3] it was 2 nM; in data set [4], 2.4 nM; in data set [5], 47 nM. Besides, the “AUClast of OKI-006 (Free)” value in data set [6] (setting [7]) is 2790 ng·h/mL; in data set [6] (setting [8]) it was 3180 ng·h/mL. In addition, the “MRAUC, OKI-006 (Free) to OKI-179 metabolite ratio based on AUClast” value in data set [6] (setting [7]) was 13.3; in data set [6] (setting [8]), 10.3. The “Cmax of OKI-006 (Free)” value in data set [6] (setting [8]) was determined as 2220 ng/mL. Further, the “Cmax and AUC versus preclinical threshold for efficacy” value in data set [6] (OKI-179 doses of 200 mg or greater) is “exceeded the preclinical threshold for efficacy”. Further, the Tmax in data set [6] (human, plasma, oral, 300 mg, OKI-179 300-mg 5:2, Cycle 1 Day 1, median) is 41.5 min; in data set [6] (human, plasma, oral, 300 mg, OKI-179 300-mg 5:2, Cycle 1 Day 15, median), 56 min. For the same molecule, the half-life in data set [6] (human, plasma, oral, 300 mg, OKI-179 300-mg 5:2, Cycle 1 Day 15, median, read-out: t1/2 of OKI-006 (Free) (converted)) was 206 min.
